The target of series [1] is Acetylcholine Binding Protein (Lymnaea stagnalis (Great pond snail) (Helix stagnalis), UniProt P58154). Further details: species or system Lymnaca stagnalis.
The target in another series is CYP2E1 (Homo sapiens (Human), UniProt P05181). Nature of the series: CYP2E1 Vivid blue substrate O-dealkylation inhibition. Type of series: biochemical. Particulars: Table 4; unit inferred; read-out: 2E1 IC50 ± SD.
The next series concerns the target CYP2D6 (Homo sapiens (Human), UniProt P10635). Nature of the series: CYP2D6 Vivid blue substrate O-dealkylation inhibition. Type of series: biochemical. Conditions: Table 4; unit inferred; read-out: 2D6 IC50 ± SD.
The nature of a further series: in vitro. Conditions: human, microsomes, pH 7.4.
A short description of series [2]: Mouse liver microsome stability assay. Particulars: mouse, microsomes, pH 7.4. Background: Liver microsomes are vesicles of endoplasmic reticulum, rich in cytochrome P450 enzymes.
Method: The residue was reconstituted in methanol (200 μL), centrifuged at 13,000 rpm for 5 min and the supernatant was analyzed by high-performance liquid chromatography with an Axxi-chrom (straight-phase) silica column (4.6 mm×250 mm, 5 μm) or with a Supelco (reverse-phase) HS F5 pentafluorophenyl column (4.6 mm×250 mm, 5 μm).
A further series deals with P450 2A6dH (Homo sapiens (Human), UniProt P11509, INS494HHHH). Briefly: Difference spectra of test compounds with N-terminal truncated CYP2A6.
Chain of P450 2A6dH (P11509 other isoform, or with tags, fused parts or gaps 1-28 replaced by MAKKTS/ins HHHH behind 494): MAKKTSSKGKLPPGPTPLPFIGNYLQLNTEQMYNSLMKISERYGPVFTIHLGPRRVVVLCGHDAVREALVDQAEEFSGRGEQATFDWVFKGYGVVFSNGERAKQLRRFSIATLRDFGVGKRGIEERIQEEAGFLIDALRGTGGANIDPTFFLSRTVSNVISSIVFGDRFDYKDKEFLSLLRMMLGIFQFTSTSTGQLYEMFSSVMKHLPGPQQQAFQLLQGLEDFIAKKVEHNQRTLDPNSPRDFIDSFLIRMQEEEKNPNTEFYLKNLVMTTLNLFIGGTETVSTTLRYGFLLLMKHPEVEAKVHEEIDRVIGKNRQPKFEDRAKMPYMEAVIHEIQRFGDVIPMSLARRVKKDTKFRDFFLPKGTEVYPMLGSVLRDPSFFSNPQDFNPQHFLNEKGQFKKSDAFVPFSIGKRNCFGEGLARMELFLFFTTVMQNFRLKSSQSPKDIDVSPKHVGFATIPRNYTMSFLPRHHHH
For series [3], the target named is CYP3A4 relative to CYP2A6 (Homo sapiens (Human), UniProt P08684). Briefly: in vitro. Conditions: human, pH 7.5.
Chain of CYP3A4 relative to CYP2A6 (P08684 whole entry): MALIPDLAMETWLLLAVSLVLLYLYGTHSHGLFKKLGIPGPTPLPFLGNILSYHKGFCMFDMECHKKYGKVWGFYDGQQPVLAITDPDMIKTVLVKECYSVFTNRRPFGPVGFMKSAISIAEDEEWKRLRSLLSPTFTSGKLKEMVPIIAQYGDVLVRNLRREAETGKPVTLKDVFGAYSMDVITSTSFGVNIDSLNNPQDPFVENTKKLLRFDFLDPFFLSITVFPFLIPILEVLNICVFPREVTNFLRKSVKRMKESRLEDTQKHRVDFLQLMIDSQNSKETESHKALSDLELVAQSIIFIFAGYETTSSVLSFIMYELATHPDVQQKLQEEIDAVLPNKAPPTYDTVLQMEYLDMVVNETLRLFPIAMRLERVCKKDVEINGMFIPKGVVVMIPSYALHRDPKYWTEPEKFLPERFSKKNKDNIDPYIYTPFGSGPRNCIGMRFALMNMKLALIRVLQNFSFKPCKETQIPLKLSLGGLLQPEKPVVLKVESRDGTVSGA
The next series deals with male Wistar rats. Nature of the series: Nicotine self-administration in nicotine-addicted rats. Format: in vivo, rat.
The target of a further series is human CYP2A6 (Homo sapiens (Human), UniProt P11509). Conditions: for IC50: human, pH 7.5.
Chain of human CYP2A6 (P11509 whole entry): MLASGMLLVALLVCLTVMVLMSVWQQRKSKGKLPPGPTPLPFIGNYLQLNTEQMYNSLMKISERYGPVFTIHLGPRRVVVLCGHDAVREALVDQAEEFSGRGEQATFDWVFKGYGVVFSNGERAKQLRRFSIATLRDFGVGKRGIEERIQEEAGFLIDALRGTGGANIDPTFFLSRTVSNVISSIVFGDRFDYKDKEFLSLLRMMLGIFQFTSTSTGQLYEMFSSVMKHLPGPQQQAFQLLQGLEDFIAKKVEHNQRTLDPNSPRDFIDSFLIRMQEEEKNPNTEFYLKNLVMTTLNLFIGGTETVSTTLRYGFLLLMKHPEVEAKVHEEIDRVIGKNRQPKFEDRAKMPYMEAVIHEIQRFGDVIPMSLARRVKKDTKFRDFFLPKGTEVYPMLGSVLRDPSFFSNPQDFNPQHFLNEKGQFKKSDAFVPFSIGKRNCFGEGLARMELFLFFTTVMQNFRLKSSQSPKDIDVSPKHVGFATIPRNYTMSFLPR
A further series concerns the target mouse CYP2A5 (Mus musculus (Mouse), UniProt P20852). Nature of the series: Inhibition of mouse CYP2A5. Format: biochemical. Particulars: read-out: IC50 mCYP2A5.
In series [4] the target is T1, CYP2A13 (Homo sapiens (Human), UniProt Q16696). Briefly: in vitro.
T1 sequence (Q16696 whole entry): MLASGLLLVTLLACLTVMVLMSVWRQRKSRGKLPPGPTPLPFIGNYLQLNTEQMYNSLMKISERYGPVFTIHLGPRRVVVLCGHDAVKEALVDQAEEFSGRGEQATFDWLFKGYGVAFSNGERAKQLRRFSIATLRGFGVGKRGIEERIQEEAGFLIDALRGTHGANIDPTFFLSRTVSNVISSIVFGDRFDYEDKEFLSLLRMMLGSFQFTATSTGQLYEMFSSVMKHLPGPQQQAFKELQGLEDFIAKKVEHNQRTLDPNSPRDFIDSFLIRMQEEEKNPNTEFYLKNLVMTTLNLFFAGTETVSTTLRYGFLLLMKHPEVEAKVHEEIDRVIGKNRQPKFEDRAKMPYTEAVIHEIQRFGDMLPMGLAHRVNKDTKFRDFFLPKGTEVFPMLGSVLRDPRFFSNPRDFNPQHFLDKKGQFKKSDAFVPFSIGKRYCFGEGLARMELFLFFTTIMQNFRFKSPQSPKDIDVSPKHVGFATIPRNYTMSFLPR
Series [5] has as its system NNK-dependent tumorigenesis in mice. Particulars: mouse, in vivo; cited from earlier work.
The target in series [6] is T1, CYP2A13. Particulars: cited from earlier work.

We go through 9 compounds from patent US8609708B2 (Human BioMolecular Research Institute, priority 2003, dated 2013).

Chain of Acetylcholine Binding Protein (P58154 20-229 limits assumed): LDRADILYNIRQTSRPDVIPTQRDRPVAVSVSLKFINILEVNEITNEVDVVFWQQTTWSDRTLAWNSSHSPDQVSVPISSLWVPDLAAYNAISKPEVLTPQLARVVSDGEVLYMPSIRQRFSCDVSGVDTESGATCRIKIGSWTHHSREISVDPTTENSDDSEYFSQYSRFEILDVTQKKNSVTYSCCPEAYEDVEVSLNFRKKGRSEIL
Chain of mouse CYP2A5 (P20852 whole entry): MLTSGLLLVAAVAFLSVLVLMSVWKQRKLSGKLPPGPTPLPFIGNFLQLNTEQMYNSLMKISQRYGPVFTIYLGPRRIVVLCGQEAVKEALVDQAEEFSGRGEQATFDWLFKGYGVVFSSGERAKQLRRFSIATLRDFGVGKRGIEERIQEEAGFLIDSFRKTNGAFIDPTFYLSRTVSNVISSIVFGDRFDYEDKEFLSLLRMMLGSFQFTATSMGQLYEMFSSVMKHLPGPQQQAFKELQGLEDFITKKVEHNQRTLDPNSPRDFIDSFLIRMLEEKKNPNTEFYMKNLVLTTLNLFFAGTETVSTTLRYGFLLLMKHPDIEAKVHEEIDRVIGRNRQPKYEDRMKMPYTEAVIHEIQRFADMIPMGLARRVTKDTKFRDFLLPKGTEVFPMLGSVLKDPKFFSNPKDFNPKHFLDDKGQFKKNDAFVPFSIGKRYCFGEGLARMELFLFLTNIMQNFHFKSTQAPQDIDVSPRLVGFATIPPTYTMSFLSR
Chain of CYP2E1 (P05181 whole entry): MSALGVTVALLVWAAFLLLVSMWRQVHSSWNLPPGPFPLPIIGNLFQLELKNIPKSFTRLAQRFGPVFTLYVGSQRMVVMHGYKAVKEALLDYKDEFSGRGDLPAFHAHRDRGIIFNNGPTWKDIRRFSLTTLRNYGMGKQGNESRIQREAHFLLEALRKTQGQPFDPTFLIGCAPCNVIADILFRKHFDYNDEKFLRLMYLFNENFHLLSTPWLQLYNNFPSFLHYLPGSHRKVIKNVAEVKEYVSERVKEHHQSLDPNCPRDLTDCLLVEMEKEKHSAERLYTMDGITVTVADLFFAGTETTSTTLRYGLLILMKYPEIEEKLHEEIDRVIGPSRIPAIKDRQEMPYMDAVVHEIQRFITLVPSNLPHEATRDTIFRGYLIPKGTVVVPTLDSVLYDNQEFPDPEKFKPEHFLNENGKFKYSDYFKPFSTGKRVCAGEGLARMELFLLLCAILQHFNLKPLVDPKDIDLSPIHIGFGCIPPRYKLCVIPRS
Chain of CYP2D6 (P10635 whole entry): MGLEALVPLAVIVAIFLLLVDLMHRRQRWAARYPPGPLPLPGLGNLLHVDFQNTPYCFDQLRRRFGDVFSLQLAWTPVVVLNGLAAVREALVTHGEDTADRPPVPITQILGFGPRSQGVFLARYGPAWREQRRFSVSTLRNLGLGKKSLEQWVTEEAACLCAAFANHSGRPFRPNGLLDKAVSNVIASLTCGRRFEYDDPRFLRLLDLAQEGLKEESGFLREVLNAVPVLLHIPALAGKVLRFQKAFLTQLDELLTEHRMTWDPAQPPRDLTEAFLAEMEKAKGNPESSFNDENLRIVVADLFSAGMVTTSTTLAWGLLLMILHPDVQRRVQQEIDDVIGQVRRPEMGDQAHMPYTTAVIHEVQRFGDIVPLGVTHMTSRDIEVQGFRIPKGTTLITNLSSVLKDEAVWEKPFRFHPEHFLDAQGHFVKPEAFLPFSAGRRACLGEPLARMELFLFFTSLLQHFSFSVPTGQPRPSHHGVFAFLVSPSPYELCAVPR
Method for P450 2A6dH: Subsequently, test compound (in 100% ethanol, 10 μM) was added to both the cuvettes. The maximal ethanol concentration used was 2%. The difference spectra were obtained after the system reached equilibrium (3 min). All spectra were recorded at 25° C.

As for `NC1CC1c1cccnc1` (stereo not shown) [2-(pyridin-3-yl)cyclopropanamine], the “% of Control” value in series [1] is on record as 8%.
For `NCc1ccc(-c2cccnc2)o1` [(5-(pyridin-3-yl)furan-2-yl)methanamine], in [1], the “% of Control” value is 20%.
What is called IC50 is the midpoint of a concentration-inhibition curve. For orientation: half-life means the time needed for the level to fall by half in the phase considered. Read a high half-life as slow decline. Turning to `NCc1ccc(-c2cccnc2)s1` [Compound 1a], the figures for the IC50 at CYP2E1 and at CYP2D6 were 40200 ± 18100 nM and 169000 ± 17000 nM, respectively. In “in vitro”, this compound showed a half-life of 39 min. Further, in series [2], the half-life at 40 μM stood at 60 min. This compound registered a λmax at P450 2A6dH (difference spectrum) of 428 nm. This compound also had a λmin on P450 2A6dH (difference spectrum) of 409 nm. Besides, on P450 2A6dH (difference spectrum with truncated CYP2A6), the binding type result is listed as “Type II”.
With `NCc1ccc(-c2cccnc2)o1` [Compound 2], the selectivity ratio at 30 min in series [3] turned out to be 174. In addition, the “in vivo activity against nicotine self-administration (in words)” value with male Wistar rats (nicotine addicted rats) is “significant in vivo activity”. Besides, the “decrease of nicotine self-administration” value in the series with male Wistar rats (rat, day 50, dihydrochloride salts in sterile saline, compound 2 16 mg/kg, compound 14 15 mg/kg) came to 70%. At human CYP2A6, the “CYP2A6 inhibition (in words)” value is listed as “significant inhibition” and 268 ± 21 nM corresponded to half-maximal inhibition (IC50).
The inhibition is the share of the control response that was lost under treatment. Higher therefore signals strong suppression. `c1cncc(-c2ccsc2)c1` [TD-I-145]: the results for the concentration for half-maximal inhibition (IC50) on mouse CYP2A5 and against human CYP2A6 were 800 nM and 1370 ± 230 nM, respectively. Moreover, the inhibition at 1 µM against CYP2A13 [4] is 12%.
`NCc1ccc(-c2cccnc2)o1` [TD-II-063]: at mouse CYP2A5, the 50% inhibitory concentration (IC50) is 600 nM. On CYP2A13 [4], this compound came in with an inhibition at 1 µM of 29%.
With `c1cncc(-c2ccc(CNCc3ccc(-c4cccnc4)s3)s2)c1` [bis((5-(pyridin-3-yl)thiophen-2-yl)methyl)amine], the “% of Control” value in series [1] stood at 10%.
For the compound `COc1c2occc2cc2ccc(=O)oc12` [methoxsalen (9-methoxypsoralen), 9-methoxypsoralen], in series [5], the “NNK-dependent tumorigenesis in mice (in words)” value is given as “strongly inhibited”.
What is called Ki is a measure of affinity in units of concentration, obtained from inhibition or displacement. Regarding `COc1c2occc2cc2ccc(=O)oc12` [methoxypsoralen (8-methoxypsoralen), 8-methoxypsoralen], the Ki at CYP2A13 [6] is 110 nM.
